Assay results from patent publication US6645918B1, “N-([1,2,4]triazoloazinyl)thiophenesulfonamide compounds and their use as herbicides” (Dow AgroSciences LLC, priority 2000, dated 2003).

How the values were obtained:
Format in all cases: in vivo
[1] = system: chickweed (Stellaria media); assay: Postemergence herbicidal activity, chickweed; settings: foliar spray, visual after 2 weeks, 0 no injury, 100 complete kill
In short: (§1)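 Greenhouse-grown plants at first or second true leaf stage were sprayed with compound in aqueous acetone/DMSO/isopropanol carrier containing crop oil concentrate and Triton X-155; 1 ppm corresponds to about 1 g/ha. Plants were sub-irrigated, and visual injury versus untreated plants was scored 0–100% after 2 weeks.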

[2] = system: cocklebur (Xanthium strumarium); assay: Postemergence herbicidal activity, cocklebur; settings: foliar spray, visual after 2 weeks, 0 no injury, 100 complete kill
In short: as §1

[3] = system: lambsquarters (Chenopodium album); assay: Postemergence herbicidal activity, lambsquarters; settings: foliar spray, visual after 2 weeks, 0 no injury, 100 complete kill
In short: as §1

[4] = system: morningglory (Ipomoea hederacea); assay: Postemergence herbicidal activity, morningglory; settings: foliar spray, visual after 2 weeks, 0 no injury, 100 complete kill
In short: as §1

[5] = system: pigweed (Amaranthus retroflexus); assay: Postemergence herbicidal activity, pigweed; settings: foliar spray, visual after 2 weeks, 0 no injury, 100 complete kill
In short: as §1

[6] = system: velvetleaf (Abutilion theophrasti); assay: Postemergence herbicidal activity, velvetleaf; settings: foliar spray, visual after 2 weeks, 0 no injury, 100 complete kill
In short: as §1

viola (Viola tricolor) = assay: Postemergence herbicidal activity, viola; settings: foliar spray, visual after 2 weeks, 0 no injury, 100 complete kill
In short: as §1

[7] = system: wild buckwheat (Polygonum convolvulus); assay: Postemergence herbicidal activity, wild buckwheat; settings: foliar spray, visual after 2 weeks, 0 no injury, 100 complete kill
In short: as §1

[8] = system: blackgrass (Alopecurus myosuroides); assay: Postemergence herbicidal activity, blackgrass; settings: foliar spray, visual after 2 weeks, 0 no injury, 100 complete kill
In short: as §1

[9] = system: giant foxtail (Setaria faberi); assay: Postemergence herbicidal activity, giant foxtail; settings: foliar spray, visual after 2 weeks, 0 no injury, 100 complete kill
In short: as §1

[10] = system: Rox orange sorghum (Sorghum bicolor); assay: Postemergence herbicidal activity, Rox orange sorghum; settings: foliar spray, visual after 2 weeks, 0 no injury, 100 complete kill
In short: as §1

wild oats (Avena fatua) [11] = assay: Postemergence herbicidal activity, wild oats; settings: foliar spray, visual after 2 weeks, 0 no injury, 100 complete kill
In short: as §1

[12] = system: cocklebur (Xanthium strumarium); assay: Preemergence herbicidal activity, cocklebur; settings: soil spray, visual after 3 weeks, 0 no injury, 100 complete kill or no germination
In short: (§2)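 Compounds in acetone/DMSO (97:3) were diluted into water with 0.1% Tween 155 and sprayed onto the soil of freshly seeded pots, with a top rate of 4.48 kg/ha. Pots were kept in a greenhouse (~15 h light, 23-29 °C day, 22-28 °C night) for 3 weeks, then injury was rated visually against untreated pots (0-100%).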

[13] = system: lambsquarters (Chenopodium album); assay: Preemergence herbicidal activity, lambsquarters; settings: soil spray, visual after 3 weeks, 0 no injury, 100 complete kill or no germination
In short: as §2

[14] = system: morningglory (Ipomoea hederacea); assay: Preemergence herbicidal activity, morningglory; settings: soil spray, visual after 3 weeks, 0 no injury, 100 complete kill or no germination
In short: as §2

[15] = system: pigweed (Amaranthus retroflexus); assay: Preemergence herbicidal activity, pigweed; settings: soil spray, visual after 3 weeks, 0 no injury, 100 complete kill or no germination
In short: as §2

[16] = system: velvetleaf (Abutilion theophrasti); assay: Preemergence herbicidal activity, velvetleaf; settings: soil spray, visual after 3 weeks, 0 no injury, 100 complete kill or no germination
In short: as §2

[17] = system: wild poinsettia (Euphorbia heterophylla); assay: Preemergence herbicidal activity, wild poinsettia; settings: soil spray, visual after 3 weeks, 0 no injury, 100 complete kill or no germination
In short: as §2

[18] = system: blackgrass (Alopecurus myosuroides); assay: Preemergence herbicidal activity, blackgrass; settings: soil spray, visual after 3 weeks, 0 no injury, 100 complete kill or no germination
In short: as §2

[19] = system: barnyardgrass (Echinochloa crus-galli); assay: Preemergence herbicidal activity, barnyardgrass; settings: soil spray, visual after 3 weeks, 0 no injury, 100 complete kill or no germination
In short: as §2

[20] = system: crabgrass (Digitaria sanguinalis); assay: Preemergence herbicidal activity, crabgrass; settings: soil spray, visual after 3 weeks, 0 no injury, 100 complete kill or no germination
In short: as §2

[21] = system: giant foxtail (Setaria faberi); assay: Preemergence herbicidal activity, giant foxtail; settings: soil spray, visual after 3 weeks, 0 no injury, 100 complete kill or no germination
In short: as §2

[22] = system: Rox orange sorghum (Sorghum bicolor); assay: Preemergence herbicidal activity, Rox orange sorghum; settings: soil spray, visual after 3 weeks, 0 no injury, 100 complete kill or no germination
In short: as §2

wild oats (Avena fatua) [23] = assay: Preemergence herbicidal activity, wild oats; settings: soil spray, visual after 3 weeks, 0 no injury, 100 complete kill or no germination
In short: as §2

COc1csc(Cl)c1S(=O)(=O)Nc1nc2c(OC)cnc(OC)n2n1 [Compound 18]
STEME postemergence injury score 0-100 ([1]; 15.6 ppm): 90% | XANST postemergence injury score 0-100 ([2]; 15.6 ppm): 100% | CHEAL postemergence injury score 0-100 ([3]; 15.6 ppm): 90% | IPOHE postemergence injury score 0-100 ([4]; 15.6 ppm): 75% | AMARE postemergence injury score 0-100 ([5]; 15.6 ppm): 100% | ABUTH postemergence injury score 0-100 ([6]; 15.6 ppm): 85% | VIOTR postemergence injury score 0-100 (viola (Viola tricolor); 15.6 ppm): 100% | POLCO postemergence injury score 0-100 ([7]; 15.6 ppm): 95% | ALOMY postemergence injury score 0-100 ([8]; 15.6 ppm): 70% | SETFA postemergence injury score 0-100 ([9]; 15.6 ppm): 90% | SORBI postemergence injury score 0-100 ([10]; 15.6 ppm): 100% | AVEFA postemergence injury score 0-100 (wild oats (Avena fatua) [11]; 15.6 ppm): 95% | XANST preemergence injury score 0-100 ([12]; 4.4 g/Ha): 90% | CHEAL preemergence injury score 0-100 ([13]; 4.4 g/Ha): 100% | IPOHE preemergence injury score 0-100 ([14]; 4.4 g/Ha): 80% | AMARE preemergence injury score 0-100 ([15]; 4.4 g/Ha): 95% | ABUTH preemergence injury score 0-100 ([16]; 4.4 g/Ha): 90% | EPHHL preemergence injury score 0-100 ([17]; 4.4 g/Ha): 90% | ALOMY preemergence injury score 0-100 ([18]; 4.4 g/Ha): 100% | ECHCG preemergence injury score 0-100 ([19]; 4.4 g/Ha): 100% | DIGSA preemergence injury score 0-100 ([20]; 4.4 g/Ha): 98% | SETFA preemergence injury score 0-100 ([21]; 4.4 g/Ha): 100% | SORBI preemergence injury score 0-100 ([22]; 4.4 g/Ha): 100% | AVEFA preemergence injury score 0-100 (wild oats (Avena fatua) [23]; 4.4 g/Ha): 80%

COc1cc(OC)n2nc(NS(=O)(=O)c3c(OC)csc3Cl)nc2n1 [Compound 19]
STEME postemergence injury score 0-100 ([1]; 15.6 ppm): 95% | XANST postemergence injury score 0-100 ([2]; 15.6 ppm): 95% | CHEAL postemergence injury score 0-100 ([3]; 15.6 ppm): 100% | IPOHE postemergence injury score 0-100 ([4]; 15.6 ppm): 80% | AMARE postemergence injury score 0-100 ([5]; 15.6 ppm): 100% | ABUTH postemergence injury score 0-100 ([6]; 15.6 ppm): 80% | VIOTR postemergence injury score 0-100 (viola (Viola tricolor); 15.6 ppm): 100% | POLCO postemergence injury score 0-100 ([7]; 15.6 ppm): 95% | ALOMY postemergence injury score 0-100 ([8]; 15.6 ppm): 70% | SETFA postemergence injury score 0-100 ([9]; 15.6 ppm): 100% | SORBI postemergence injury score 0-100 ([10]; 15.6 ppm): 100% | AVEFA postemergence injury score 0-100 (wild oats (Avena fatua) [11]; 15.6 ppm): 100% | XANST preemergence injury score 0-100 ([12]; 8.8 g/Ha): 50% | CHEAL preemergence injury score 0-100 ([13]; 8.8 g/Ha): 90% | IPOHE preemergence injury score 0-100 ([14]; 8.8 g/Ha): 90% | AMARE preemergence injury score 0-100 ([15]; 8.8 g/Ha): 75% | ABUTH preemergence injury score 0-100 ([16]; 8.8 g/Ha): 95% | EPHHL preemergence injury score 0-100 ([17]; 8.8 g/Ha): 90% | ALOMY preemergence injury score 0-100 ([18]; 8.8 g/Ha): 95% | ECHCG preemergence injury score 0-100 ([19]; 8.8 g/Ha): 95% | DIGSA preemergence injury score 0-100 ([20]; 8.8 g/Ha): 100% | SETFA preemergence injury score 0-100 ([21]; 8.8 g/Ha): 100% | SORBI preemergence injury score 0-100 ([22]; 8.8 g/Ha): 95% | AVEFA preemergence injury score 0-100 (wild oats (Avena fatua) [23]; 8.8 g/Ha): 100%

COc1csc(Cl)c1S(=O)(=O)Nc1nc2c(Cl)cnc(OC)n2n1 [Compound 20]
STEME postemergence injury score 0-100 ([1]; 31.3 ppm): 85% | XANST postemergence injury score 0-100 ([2]; 31.3 ppm): 100% | CHEAL postemergence injury score 0-100 ([3]; 31.3 ppm): 75% | IPOHE postemergence injury score 0-100 ([4]; 31.3 ppm): 75% | AMARE postemergence injury score 0-100 ([5]; 31.3 ppm): 95% | ABUTH postemergence injury score 0-100 ([6]; 31.3 ppm): 85% | VIOTR postemergence injury score 0-100 (viola (Viola tricolor); 31.3 ppm): 90% | POLCO postemergence injury score 0-100 ([7]; 31.3 ppm): 90% | ALOMY postemergence injury score 0-100 ([8]; 31.3 ppm): 30% | SETFA postemergence injury score 0-100 ([9]; 31.3 ppm): 50% | SORBI postemergence injury score 0-100 ([10]; 31.3 ppm): 85% | AVEFA postemergence injury score 0-100 (wild oats (Avena fatua) [11]; 31.3 ppm): 70% | XANST preemergence injury score 0-100 ([12]; 17.5 g/Ha): 60% | CHEAL preemergence injury score 0-100 ([13]; 17.5 g/Ha): 70% | IPOHE preemergence injury score 0-100 ([14]; 17.5 g/Ha): 70% | AMARE preemergence injury score 0-100 ([15]; 17.5 g/Ha): 80% | ABUTH preemergence injury score 0-100 ([16]; 17.5 g/Ha): 80% | EPHHL preemergence injury score 0-100 ([17]; 17.5 g/Ha): 50% | ALOMY preemergence injury score 0-100 ([18]; 17.5 g/Ha): 90% | ECHCG preemergence injury score 0-100 ([19]; 17.5 g/Ha): 95% | DIGSA preemergence injury score 0-100 ([20]; 17.5 g/Ha): 85% | SETFA preemergence injury score 0-100 ([21]; 17.5 g/Ha): 50% | SORBI preemergence injury score 0-100 ([22]; 17.5 g/Ha): 90% | AVEFA preemergence injury score 0-100 (wild oats (Avena fatua) [23]; 17.5 g/Ha): 90%
